In PubChem BioAssay AID328 (DTP/NCI, 2004):
Values joined by “and” are separate entries in the source; they are usually repeats but may differ in a detail not shown here. Equal entries are not always repeated. Toxic doses and inconclusive results are not listed.

System: BDF1 mice, P388 leukemia ip, median survival T/C
Test: NCI In Vivo Anticancer Drug Screen. Data for tumor model P388 Leukemia (intraperitoneal) in B6D2F1 (BDF1) mice
Details: endpoint: median survival time, higher = longer survival
Summary of the method: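 Transplantable tumour in mice; compound vs vehicle dosing; survival scored; ratio of treated to control reported.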

[1] = dose: 50.0 mg/kg/injection, schedule: Q01DX009 (ip), vehicle: Klucel (hydroxypropylcellulose) (HPC)
[2] = dose: 100.0 mg/kg/injection, schedule: Q01DX009 (ip), vehicle: Klucel (hydroxypropylcellulose) (HPC)
[3] = dose: 200.0 mg/kg/injection, schedule: Q01DX009 (ip), vehicle: Klucel (hydroxypropylcellulose) (HPC)
[4] = dose: 6.25 mg/kg/injection, schedule: Q01DX009 (ip), vehicle: saline with Tween-80
[5] = dose: 12.5 mg/kg/injection, schedule: Q01DX009 (ip), vehicle: saline with Tween-80
[6] = dose: 25.0 mg/kg/injection, schedule: Q01DX009 (ip), vehicle: saline with Tween-80
[7] = dose: 50.0 mg/kg/injection, schedule: Q01DX009 (ip), vehicle: saline with Tween-80
[8] = dose: 50.0 mg/kg/injection, schedule: Q04DX003 (ip), vehicle: saline with Tween-80
[9] = dose: 100.0 mg/kg/injection, schedule: Q01DX009 (ip), vehicle: saline with Tween-80
[10] = dose: 100.0 mg/kg/injection, schedule: Q04DX003 (ip), vehicle: saline with Tween-80
[11] = dose: 200.0 mg/kg/injection, schedule: Q04DX003 (ip), vehicle: saline with Tween-80

ClC1(Cl)OC(Cl)(Cl)C(Cl)(Cl)OC1(Cl)Cl
T/C [1]: 95 % of control
T/C [2]: 95 % of control
T/C [3]: 109 % of control

C1CC[N-]CC1.C1CC[N-]CC1.[I][Pt+2][I]
T/C [1]: 93 % of control
T/C [2]: 93 % of control

[I][Hg][CH2]C1COC([CH2][Hg][I])CO1 (configuration not stated)
T/C (dose: 0.78 mg/kg/injection, schedule: Q01DX010 (ip), vehicle: saline): 95 % of control
T/C (dose: 1.56 mg/kg/injection, schedule: Q01DX010 (ip), vehicle: saline): 95 % of control and 118 % of control
T/C (dose: 3.13 mg/kg/injection, schedule: Q01DX010 (ip), vehicle: saline): 100 % of control and 122 % of control
T/C (dose: 6.25 mg/kg/injection, schedule: Q01DX010 (ip), vehicle: saline): 122 % of control
T/C (dose: 12.5 mg/kg/injection, schedule: Q01DX010 (ip), vehicle: saline): 118 % of control

C=[CH][Sn][CH2]CCC
T/C (dose: 12.5 mg/kg/injection, schedule: Q01DX009 (ip), vehicle: Klucel (hydroxypropylcellulose) (HPC)): 100 % of control
T/C (dose: 25.0 mg/kg/injection, schedule: Q01DX009 (ip), vehicle: Klucel (hydroxypropylcellulose) (HPC)): 103 % of control
T/C [1]: 99 % of control

COC(=O)/C=C/c1ccc(Cl)cc1
T/C [2]: 95 % of control
T/C [3]: 95 % of control
T/C (dose: 400.0 mg/kg/injection, schedule: Q01DX009 (ip), vehicle: Klucel (hydroxypropylcellulose) (HPC)): 91 % of control

COC(=O)C(CCC1CCCCN1)(c1ccccc1)c1ccccc1 (configuration not stated)
T/C (dose: 66.0 mg/kg/injection, schedule: Q04DX003 (ip), vehicle: saline with Tween-80): 123 % of control
T/C (dose: 100.0 mg/kg/injection, schedule: Q01DX009 (ip), vehicle: saline): 90 % of control

CC(=O)Nc1ccc(S(=O)(=O)N2CC2)cc1
T/C (dose: 25.0 mg/kg/injection, schedule: Q01DX005 (ip), vehicle: saline): 98 % of control
T/C (dose: 50.0 mg/kg/injection, schedule: Q01DX005 (ip), vehicle: saline): 111 % of control
T/C (dose: 100.0 mg/kg/injection, schedule: Q01DX005 (ip), vehicle: saline): 98 % of control
T/C (dose: 200.0 mg/kg/injection, schedule: Q01DX005 (ip), vehicle: saline): 111 % of control

Cc1noc(-c2ccc([N+](=O)[O-])o2)n1
T/C [1]: 93 % of control
T/C [2]: 101 % of control

CCCCCCCCS.[Ni]
T/C (dose: 100.0 mg/kg/injection, schedule: Q01DX001 (ip), vehicle: Klucel (hydroxypropylcellulose) (HPC)): 100 % of control
T/C (dose: 100.0 mg/kg/injection, schedule: Q04DX003 (ip), vehicle: Klucel (hydroxypropylcellulose) (HPC)): 113 % of control
T/C (dose: 200.0 mg/kg/injection, schedule: Q01DX001 (ip), vehicle: Klucel (hydroxypropylcellulose) (HPC)): 100 % of control

NNC(=O)c1ccc(Cl)c(Cl)c1
T/C [4]: 113 % of control
T/C [5]: 86 % of control
T/C (dose: 12.5 mg/kg/injection, schedule: Q04DX003 (ip), vehicle: saline with Tween-80): 98 % of control
T/C [6]: 89 % of control
T/C (dose: 25.0 mg/kg/injection, schedule: Q04DX003 (ip), vehicle: saline with Tween-80): 107 % of control
T/C [7]: 104 % of control
T/C [8]: 107 % of control
T/C (dose: 100.0 mg/kg/injection, schedule: Q01DX001 (ip), vehicle: saline sonified): 91 % of control
T/C [9]: 97 % of control
T/C [10]: 107 % of control
T/C (dose: 200.0 mg/kg/injection, schedule: Q01DX001 (ip), vehicle: saline sonified): 100 % of control
T/C [11]: 107 % of control

COC(=O)[C@@H]1c2cc3c(c(O)c2[C@@H](OC2OC(C)C(OC)C(C)(OC)C2OC)C[C@]1(C)O)C(=O)c1c(O)cc2c(c1C3=O)O[C@H]1O[C@]2(C)[C@H](O)[C@@H](N(C)C)[C@@H]1O (some centres not stated)
T/C (dose: 0.13 mg/kg/injection, schedule: Q01DX010 (ip), vehicle: saline): 113 % of control
T/C (dose: 0.19 mg/kg/injection, schedule: Q01DX010 (ip), vehicle: saline): 154 % of control
T/C (dose: 0.25 mg/kg/injection, schedule: Q01DX009 (sc), vehicle: saline): 100 % of control
T/C (dose: 0.25 mg/kg/injection, schedule: Q01DX010 (ip), vehicle: saline): 109 % of control
T/C (dose: 0.38 mg/kg/injection, schedule: Q01DX010 (ip), vehicle: saline): 150 % of control
T/C (dose: 0.5 mg/kg/injection, schedule: Q01DX009 (sc), vehicle: saline): 100 % of control
T/C (dose: 0.75 mg/kg/injection, schedule: Q01DX001 (sc), vehicle: saline): 100 % of control
T/C (dose: 1.0 mg/kg/injection, schedule: Q01DX009 (ip), vehicle: saline): 109 % of control
T/C (dose: 1.0 mg/kg/injection, schedule: Q01DX009 (sc), vehicle: saline): 100 % of control
T/C (dose: 1.0 mg/kg/injection, schedule: Q01DX010 (ip), vehicle: saline): 155 % of control
T/C (dose: 1.5 mg/kg/injection, schedule: Q01DX001 (sc), vehicle: saline): 100 % of control
T/C (dose: 2.0 mg/kg/injection, schedule: Q01DX009 (ip), vehicle: saline): 100 % of control
T/C (dose: 2.0 mg/kg/injection, schedule: Q01DX009 (oral), vehicle: saline): 100 % of control
T/C (dose: 2.0 mg/kg/injection, schedule: Q01DX009 (sc), vehicle: saline): 100 % of control
T/C (dose: 2.16 mg/kg/injection, schedule: Q04DX003 (ip), vehicle: water): 95 % of control
T/C (dose: 3.0 mg/kg/injection, schedule: Q01DX001 (sc), vehicle: saline): 100 % of control
T/C (dose: 3.0 mg/kg/injection, schedule: Q04DX003 (ip), vehicle: water): 107 % of control
T/C (dose: 4.0 mg/kg/injection, schedule: Q01DX009 (ip), vehicle: saline): 100 % of control
T/C (dose: 4.0 mg/kg/injection, schedule: Q01DX009 (oral), vehicle: saline): 100 % of control
T/C (dose: 4.0 mg/kg/injection, schedule: Q01DX009 (sc), vehicle: saline): 104 % of control
T/C (dose: 5.0 mg/kg/injection, schedule: Q01DX001 (oral), vehicle: saline): 100 % of control
T/C (dose: 6.0 mg/kg/injection, schedule: Q01DX001 (sc), vehicle: saline): 100 % of control
T/C (dose: 8.0 mg/kg/injection, schedule: Q01DX009 (oral), vehicle: saline): 100 % of control
T/C (dose: 10.0 mg/kg/injection, schedule: Q01DX001 (oral), vehicle: saline): 100 % of control
T/C (dose: 12.0 mg/kg/injection, schedule: Q01DX001 (sc), vehicle: saline): 100 % of control
T/C (dose: 16.0 mg/kg/injection, schedule: Q01DX009 (oral), vehicle: saline): 100 % of control
T/C (dose: 20.0 mg/kg/injection, schedule: Q01DX001 (oral), vehicle: saline): 100 % of control
T/C (dose: 40.0 mg/kg/injection, schedule: Q01DX001 (oral), vehicle: saline): 100 % of control
T/C (dose: 7.0 micrograms/kg/injection, schedule: Q01DX010 (ip), vehicle: saline): 110 % of control
T/C (dose: 15.0 micrograms/kg/injection, schedule: Q01DX010 (ip), vehicle: saline): 90 % of control
T/C (dose: 30.0 micrograms/kg/injection, schedule: Q01DX010 (ip), vehicle: saline): 110 % of control

Cc1cc(Cl)c(C)c(Cl)c1Cl
T/C [9]: 90 % of control
T/C (dose: 200.0 mg/kg/injection, schedule: Q01DX009 (ip), vehicle: saline with Tween-80): 95 % of control
T/C (dose: 400.0 mg/kg/injection, schedule: Q01DX009 (ip), vehicle: saline with Tween-80): 86 % of control

O=C1CCC23/C=C/C(=O)NCCCCNCCCNC(=O)/C=C/c4ccc(c2c4)OC3C1 (configuration not stated)
T/C [8]: 105 % of control
T/C [10]: 105 % of control
T/C [11]: 105 % of control

C/C=C/C(=O)NCC(C(C)C)/[N+]([O-])=N/O (configuration not stated)
T/C [4]: 104 % of control
T/C [5]: 116 % of control
T/C [6]: 87 % of control

CCCCCCCCCC(=O)CCC
T/C (dose: 100.0 mg/kg/injection, schedule: Q04DX003 (ip), vehicle: saline): 100 % of control
T/C (dose: 200.0 mg/kg/injection, schedule: Q04DX003 (ip), vehicle: saline): 100 % of control
T/C (dose: 400.0 mg/kg/injection, schedule: Q04DX003 (ip), vehicle: saline): 104 % of control

CCOc1ccc(NC(=S)N(C)C)cc1
T/C [7]: 90 % of control
T/C [9]: 86 % of control

O=c1[nH]cnc2ccc(Cl)cc12
T/C (dose: 37.5 mg/kg/injection, schedule: Q01DX009 (ip), vehicle: saline with Tween-80): 92 % of control
T/C (dose: 37.5 mg/kg/injection, schedule: Q04DX003 (ip), vehicle: saline with Tween-80): 92 % of control
T/C (dose: 75.0 mg/kg/injection, schedule: Q01DX009 (ip), vehicle: saline with Tween-80): 96 % of control
